# Laboratory results reported in patent US4939274A, “Hydroxybutenolide derivatives, production and use thereof” (Takeda Chemical Industries, Ltd., priority 1986, dated 1990).
# How the values were obtained:
# [1] = tested on: lipid peroxide formation in rat brain tissue homogenate; assay: Activity to inhibit lipid peroxide formation in rat brain tissue homogenate (TBA method); type: biochemical; settings: 10^-5 M; 5% rat brain homogenate, 37° C., 1 hour; n=3, mean; vs. DMSO reference
# Method: Male SD rats (12-week-old) were subjected to exsanguination under anesthesia with pentobarbital, then the brain was excised. The brain tissue was homogenized in a phosphate buffer (pH 7.4) to prepare a 5% homogenate. After incubation of the homogenate at 37° C. for 1 hour, the amount of lipid peroxides formed therein was determined by the thiobarbituric acid (TBA) method in accordance with the report of Ohkawa et al. on Analytical Biochemistry, 95, 351, (1979). The test drug was added to the 5% homogenate before incubation so as to make the final concentration be 10^-5 M The activity to inhibit the formation of lipid peroxide was compared with that of the reference group to which was added the solvent (DMSO), and shown by % inhibition.
# [2] = tested on: mice; assay: Acute toxicity in mice; type: in vivo; settings: oral, 300 and 1000 mg/kg
# Method: Male Crj-ICR mice (4-week-old, 21 to 26 g) were used. The animals, divided into groups, each consisting of six mice, were administered orally with compounds (4-c, 4-h) at the dosages of 300 and 1000 mg/kg, respectively. Then, each group was housed in a cage and observed for 24 hours.
# The test drugs were suspended in gum arabic and administered at a volume of 0.1 ml/10 g.
# [3] = tested on: ventricular arrhythmia during coronary artery occlusion-reperfusion in rat hearts; assay: Activity to inhibit occurrence of ventricular arrhythmia during coronary artery occlusion-reperfusion in rat hearts; type: in vivo; settings: 50 mg/kg, oral; for Ventricular fibrillation, Incidence (10 min.) / Ventricular tachycardia, Incidence (10 min.): 10 min. observation; for Ventricular fibrillation, Incidence (10 min.): control 4.1 ± 0.7; for Ventricular tachycardia, Incidence (10 min.): control 11.5 ± 5.0; for Ventricular tachycardia, Duration / Ventricular fibrillation, Duration: average ± SEM; for Ventricular tachycardia, Duration: control 26.5 ± 6.8; for Ventricular fibrillation, Duration: control 74.2 ± 30.8; for Exrasystole: control 11.0 ± 4.0; for Mortality: killed/tested animals, control 2/18
# Source text: Male SD rats (9- to 13-week old, 250 to 370 g) were used. The animals were subjected to thoractonomy under artificial respiration while anesthesia was maintained by administering pentobarbital. […] By recording standard limb lead II electrocardiograms, occurrence of ventricular arrhythmia was examined.
# Incidences of ventricular fibrillation and ventricular tachycardia are shown by the percentage of the number of animals presenting the symptoms relative to the number of animals subjected to the test, and the duration of the symptoms was shown in average ±SEM by seconds. Extrasystole is shown by the number of systole/min., and the mortality is shown by the percentage of the number of killed animals relative to the number of test animals.
smiles,measurement,setting,value
CCCCCCCCCCCCOc1ccc(C2=C(O)C(C)OC2=O)cc1 (stereo not shown) [Compound 4-i],Inhibition rate (lipid peroxide formation),[1],100.0%
CCCCCCCCCCOc1ccc(C2=C(O)C(C)OC2=O)cc1 (stereo not shown) [Compound 4-d],Inhibition rate (lipid peroxide formation),[1],100.0%
CCCCCOc1ccc(C2=C(O)COC2=O)cc1 [Compound 4-a],Inhibition rate (lipid peroxide formation),[1],57.1%
"CCCCCCCCCCCCOc1ccc(C2=C(O)COC2=O)cc1 [Compound 4-h, 2-(4-dodecyloxyphenyl)-3-hydroxy-2-buten-4-olide]",Inhibition rate (lipid peroxide formation),[1],100.0%
same,recovery from sedation and ptosis,[2],≤ 3 h
same,"state of sedation and ptosis, animals affected",[2]; six mice per group,half number of the test animals
CCCCCCCCCCCCCCCCCCOc1ccc(C2=C(O)COC2=O)cc1 [Compound 4-k],Inhibition rate (lipid peroxide formation),[1],80.1%
CCCCCCCCCCCCCCOc1ccc(C2=C(O)COC2=O)cc1 [Compound 4-j],Inhibition rate (lipid peroxide formation),[1],100.0%
"O=C1O[C@H]([C@@H](O)CO)C(O)=C1O [Vitamin C, ascorbic acid]",Inhibition rate (lipid peroxide formation),[1],-71.6%
same,effect on ventricular arrhythmia,[3],no significant effect
same,"Ventricular fibrillation, Incidence (10 min.)",[3],5.4 ± 0.8
same,"Ventricular tachycardia, Incidence (10 min.)",[3],9.5 ± 1.8
same,"Ventricular tachycardia, Duration",[3],12.0 ± 2.9 s
same,"Ventricular fibrillation, Duration",[3],74.1 ± 36.0 s
same,Exrasystole,[3],11.0 ± 0.8 times/min.
same,Mortality,[3],1/12
CCCCCCCCCCOc1ccc(C2=C(O)C(c3ccccc3)OC2=O)cc1 (stereo not shown) [Compound 4-e],Inhibition rate (lipid peroxide formation),[1],100.0%
CCCCCCCOc1ccc(C2=C(O)COC2=O)cc1 [Compound 4-b],Inhibition rate (lipid peroxide formation),[1],100.0%
CCCCCCCCCCCOc1ccc(C2=C(O)COC2=O)cc1 [Compound 4-f],Inhibition rate (lipid peroxide formation),[1],89.7%
"Cc1c(C)c2c(c(C)c1O)CC[C@@](C)(CCC[C@H](C)CCC[C@H](C)CCCC(C)C)O2 [Vitamin E, α-tocopherol]",Inhibition rate (lipid peroxide formation),[1],44.9%
same,effect on ventricular arrhythmia,[3],no significant effect
same,"Ventricular fibrillation, Incidence (10 min.)",[3],2.0 ± 0.7
same,"Ventricular tachycardia, Incidence (10 min.)",[3],3.7 ± 1.5
same,"Ventricular tachycardia, Duration",[3],22.3 ± 9.7 s
same,"Ventricular fibrillation, Duration",[3],43.4 ± 36.0 s
same,Exrasystole,[3],7.0 ± 4.1 times/min.
same,Mortality,[3],1/10
"CCCCCCCCCCCOc1ccc(C2=C(O)C(c3ccccc3)OC2=O)cc1 (stereo not shown) [Compound 4-g, 2-(4-undecyloxyphenyl)-3-hydroxy-4-phenyl-2-buten-4-olide]",Inhibition rate (lipid peroxide formation),[1],100.0%
